What all share (type): cell-based
One series concerns the target T1, hTLR8 (Homo sapiens, UniProt Q9NR97).
T1 construct: codes for a protein of 1041 amino acids; expressed in transfected cells; host or cells: human 293 fibroblasts (ATCC CRL-1573), transient
T1 sequence (Q9NR97 27-1041): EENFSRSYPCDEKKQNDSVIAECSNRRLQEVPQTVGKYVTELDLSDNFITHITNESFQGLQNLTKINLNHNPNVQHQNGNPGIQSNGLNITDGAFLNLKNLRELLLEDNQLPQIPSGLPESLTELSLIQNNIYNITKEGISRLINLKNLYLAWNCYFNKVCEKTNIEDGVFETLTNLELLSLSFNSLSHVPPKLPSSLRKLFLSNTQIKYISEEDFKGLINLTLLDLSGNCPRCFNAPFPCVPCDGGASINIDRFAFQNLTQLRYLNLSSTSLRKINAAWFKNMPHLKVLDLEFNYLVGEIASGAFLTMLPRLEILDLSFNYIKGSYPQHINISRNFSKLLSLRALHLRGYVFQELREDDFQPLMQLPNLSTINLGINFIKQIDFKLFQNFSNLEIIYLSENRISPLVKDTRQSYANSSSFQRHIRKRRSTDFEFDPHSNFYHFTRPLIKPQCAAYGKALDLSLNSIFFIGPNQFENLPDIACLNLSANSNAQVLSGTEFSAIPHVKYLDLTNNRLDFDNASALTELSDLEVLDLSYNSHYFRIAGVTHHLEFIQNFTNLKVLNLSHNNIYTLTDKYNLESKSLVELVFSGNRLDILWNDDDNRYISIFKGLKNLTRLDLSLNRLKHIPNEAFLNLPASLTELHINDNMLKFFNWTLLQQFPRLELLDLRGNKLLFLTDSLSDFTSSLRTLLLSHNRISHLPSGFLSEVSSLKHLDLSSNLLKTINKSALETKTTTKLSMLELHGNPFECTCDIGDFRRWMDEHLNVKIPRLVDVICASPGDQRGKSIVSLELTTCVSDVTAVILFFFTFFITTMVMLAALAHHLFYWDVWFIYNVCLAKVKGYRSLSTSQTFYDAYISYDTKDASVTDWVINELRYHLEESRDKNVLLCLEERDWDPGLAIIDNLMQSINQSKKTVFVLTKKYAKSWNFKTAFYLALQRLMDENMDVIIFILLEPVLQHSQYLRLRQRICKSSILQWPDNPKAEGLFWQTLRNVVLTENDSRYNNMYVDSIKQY
As to the kind of experiment: IL-8 production in 293 cells transiently transfected with hTLR8. Conditions: 293 cells transfected with hTLR8; ODN 2 μM, LPS 100 ng/ml. As for the experimental part:
(§1) The cloned human TLR7 and human TLR8 cDNA (our result) were cloned into the expression vector pcDNA3.1 (−) from Invitrogen using the NotI site. Utilizing a “gain of function” assay, hTLR7 and hTLR8 expression vectors were transiently expressed in human 293 fibroblasts (ATCC, CRL-1573) using the calcium phosphate method. Activation was monitored by IL-8 production after stimulus with CpG-ODN (2006 or 1668, 2 μM) or LPS (100 ng/ml).

In the next series the target is T2, hTLR7 (Homo sapiens, UniProt Q9NYK1).
T2 construct: codes for a protein of 1049 amino acids; expressed in transfected cells; host or cells: human 293 fibroblasts (ATCC CRL-1573), transient
T2 sequence (Q9NYK1 27-1049): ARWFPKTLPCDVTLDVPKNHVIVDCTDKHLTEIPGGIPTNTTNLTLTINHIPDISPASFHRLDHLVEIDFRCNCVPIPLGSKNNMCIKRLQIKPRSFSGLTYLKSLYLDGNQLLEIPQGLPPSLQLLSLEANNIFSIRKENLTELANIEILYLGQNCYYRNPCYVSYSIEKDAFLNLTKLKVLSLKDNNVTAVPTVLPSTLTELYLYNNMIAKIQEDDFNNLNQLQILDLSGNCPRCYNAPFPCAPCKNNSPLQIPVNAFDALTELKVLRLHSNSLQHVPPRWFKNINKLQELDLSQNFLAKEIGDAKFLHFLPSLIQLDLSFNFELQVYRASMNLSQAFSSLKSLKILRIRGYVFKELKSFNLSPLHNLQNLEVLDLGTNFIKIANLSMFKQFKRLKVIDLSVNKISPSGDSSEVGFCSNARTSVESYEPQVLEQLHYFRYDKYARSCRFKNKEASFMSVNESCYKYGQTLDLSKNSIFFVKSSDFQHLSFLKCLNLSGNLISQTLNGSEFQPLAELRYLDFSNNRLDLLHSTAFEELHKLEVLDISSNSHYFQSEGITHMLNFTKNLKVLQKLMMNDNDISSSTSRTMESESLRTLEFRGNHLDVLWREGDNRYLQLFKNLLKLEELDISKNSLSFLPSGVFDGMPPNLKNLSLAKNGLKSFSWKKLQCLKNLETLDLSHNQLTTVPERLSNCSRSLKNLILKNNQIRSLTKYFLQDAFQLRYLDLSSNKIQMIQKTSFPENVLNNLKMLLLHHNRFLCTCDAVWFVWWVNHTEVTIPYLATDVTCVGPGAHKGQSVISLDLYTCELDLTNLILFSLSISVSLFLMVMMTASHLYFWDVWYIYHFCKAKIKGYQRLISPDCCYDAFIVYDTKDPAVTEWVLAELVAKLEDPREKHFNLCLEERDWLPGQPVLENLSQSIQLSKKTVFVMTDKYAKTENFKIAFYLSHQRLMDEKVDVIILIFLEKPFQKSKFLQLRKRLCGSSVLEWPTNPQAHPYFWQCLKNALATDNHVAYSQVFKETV
As to the kind of experiment: IL-8 production in 293 cells transiently transfected with hTLR7. Conditions: 293 cells transfected with hTLR7; ODN 2 μM, LPS 100 ng/ml. As for the experimental part:
as §1

The subject of the next series is murine splenocytes. Nature of the series: IL-12 production in murine splenocytes. Conditions: ODN titration, after 8 hours. From the text:
(§2) By iterative examination of the flanking sequences surrounding CG dinucleotides, CpG-motifs have been identified. Paradoxically, or by twist of nature, the human optimal CpG-motif, GTCGTT (SEQ ID NO:66), is different from the murine motif, GACGTT (SEQ ID NO:129). Human peripheral blood mononuclear cells (PBMC) (FIG. 10A) and murine splenocytes (FIG. 10B) were stimulated with ODN 2006 (filled circle, […], SEQ ID NO:112), ODN 2006-GC (open circle), ODN 1668 (filled triangle, […], SEQ ID NO:84) or ODN 1668-GC (open triangle, […], SEQ ID NO:85) at indicated concentrations and IL-12 production was monitored after 8 hours. […] It should also be noted that the Kac (concentration of half-maximal activation) of murine splenocytes for 1668 was greater than human PBMC for 2006 (compare FIG. 10A to FIG. 10B).

For series [1], the system named is Human peripheral blood mononuclear cells (PBMC). Nature of the series: IL-12 production in human PBMC. Conditions: ODN titration, after 8 hours.
Text: as §2

For “TCCATGACGTTCCTGATGCT (listed as DNA, chemistry not fully specified) [ODN 1668]”, the “activation monitored by IL-8 production” value with hTLR8 and with hTLR7 was “None of the stimuli used activated” in each case. Further, the IL-12 production result with murine splenocytes was “induced optimal IL-12”; in series [1], “much less effective”.
For “TCCATGAGCTTCCTGATGCT (listed as DNA, chemistry not fully specified) [ODN 1668-GC]”, the IL-12 production result in series [1] is reported as “essentially negative”.
Turning to TCGTCGTTTTGTCGTTTTGTCGTT [ODN 2006], the “activation monitored by IL-8 production” value on hTLR8 and at hTLR7 was “None of the stimuli used activated” throughout. The figures for the IL-12 production entry (in the series with murine splenocytes; in series [1]) were “much less effective” and “induces IL-12 production”, respectively.
Turning to “TGCTGCTTTTGTGCTTTTGTGCTT (listed as DNA, chemistry not fully specified) [ODN 2006-GC]”, the IL-12 production result in series [1] is “essentially negative”.
lipopolysaccharide [LPS]: the “activation monitored by IL-8 production” value on hTLR8 and at hTLR7 was “None of the stimuli used activated” each time.

The values above are taken from patent US7820379B2, “Process for high throughput screening of CpG-based immuno-agonist/antagonist” (Coley Pharmaceutical GmbH, priority 2000, dated 2010).
